Calls of active or inactive are those of the source. The rule behind the calls is not given here.
Experiments:
[1] = system: Mus musculus; assay: Anticonvulsant activity in Mus musculus CF1 albino (mouse) assessed as protection against maximal electroshock-induced seizures at 30 mg/kg, ip measured at 0.5 hr; type: functional, organism-based; parameters: dose 30 mg/kg
[2] = system: Mus musculus; assay: Anticonvulsant activity in Mus musculus CF1 albino (mouse) assessed as protection against maximal electroshock-induced seizures at 300 mg/kg, ip measured at 4 hr; type: functional, organism-based; parameters: dose 300 mg/kg
[3] = system: Mus musculus; assay: Anticonvulsant activity in Mus musculus CF1 albino (mouse) assessed as protection against maximal electroshock-induced seizures at 100 mg/kg, ip measured at 4 hr; type: functional, organism-based; parameters: dose 100 mg/kg
[4] = system: Mus musculus; assay: Anticonvulsant activity in Mus musculus CF1 albino (mouse) assessed as protection against maximal electroshock-induced seizures at 30 mg/kg, ip measured at 4 hr; type: functional, organism-based; parameters: dose 30 mg/kg
[5] = system: Mus musculus; assay: Anticonvulsant activity in Mus musculus CF1 albino (mouse) assessed as protection against maximal electroshock-induced seizures at 300 mg/kg, ip measured at 0.5 hr; type: functional, organism-based; parameters: dose 300 mg/kg
[6] = system: Mus musculus; assay: Anticonvulsant activity in Mus musculus CF1 albino (mouse) assessed as protection against maximal electroshock-induced seizures at 100 mg/kg, ip measured at 0.5 hr; type: functional, organism-based; parameters: dose 100 mg/kg
[7] = system: Mus musculus; assay: Anticonvulsant activity in ip dosed Mus musculus CF1 albino (mouse) assessed as protection against electrically-induced seizure measured at 0.25 hr by 6Hz psychomotor seizure test; type: functional
[8] = system: Mus musculus; assay: Anticonvulsant activity in ip dosed Mus musculus CF1 albino (mouse) assessed as protection against subcutaneous metrazol-induced seizures measured at 0.25 hr; type: functional
[9] = system: Mus musculus; assay: Anticonvulsant activity in ip dosed Mus musculus CF1 albino (mouse) assessed as protection against maximal electroshock-induced seizures measured at 0.25 hr; type: functional
[10] = system: Mus musculus; assay: Anticonvulsant activity in Mus musculus CF1 albino (mouse) assessed as protection against electrically-induced seizure at 100 mg/kg, ip measured at 4 hr by 6Hz psychomotor seizure test; type: functional, organism-based; parameters: dose 100 mg/kg
[11] = system: Mus musculus; assay: Anticonvulsant activity in Mus musculus CF1 albino (mouse) assessed as protection against electrically-induced seizure at 100 mg/kg, ip measured at 2 hr by 6Hz psychomotor seizure test; type: functional, organism-based; parameters: dose 100 mg/kg
[12] = system: Mus musculus; assay: Anticonvulsant activity in Mus musculus CF1 albino (mouse) assessed as protection against electrically-induced seizure at 100 mg/kg, ip measured at 1 hr by 6Hz psychomotor seizure test; type: functional, organism-based; parameters: dose 100 mg/kg
[13] = system: Mus musculus; assay: Anticonvulsant activity in Mus musculus CF1 albino (mouse) assessed as protection against electrically-induced seizure at 100 mg/kg, ip measured at 0.5 hr by 6Hz psychomotor seizure test; type: functional, organism-based; parameters: dose 100 mg/kg
[14] = system: Mus musculus; assay: Anticonvulsant activity in Mus musculus CF1 albino (mouse) assessed as protection against electrically-induced seizure at 100 mg/kg, ip measured at 0.25 hr by 6Hz psychomotor seizure test; type: functional, organism-based; parameters: dose 100 mg/kg
[15] = system: Mus musculus; assay: Neurotoxicity in Mus musculus CF1 albino (mouse) assessed as minimal motor impairment at 100 mg/kg, ip measured at 4 hr by rotorod test; type: toxicity, organism-based; parameters: dose 100 mg/kg, route intraperitoneal; settings: in vivo
[16] = system: Mus musculus; assay: Neurotoxicity in Mus musculus CF1 albino (mouse) assessed as minimal motor impairment at 30 mg/kg, ip measured at 4 hr by rotorod test; type: toxicity, organism-based; parameters: dose 30 mg/kg, route intraperitoneal; settings: in vivo
[17] = system: Mus musculus; assay: Neurotoxicity in Mus musculus CF1 albino (mouse) assessed as minimal motor impairment at 300 mg/kg, ip measured at 0.5 hr by rotorod test; type: toxicity, organism-based; parameters: dose 300 mg/kg, route intraperitoneal; settings: in vivo
[18] = system: Mus musculus; assay: Neurotoxicity in Mus musculus CF1 albino (mouse) assessed as minimal motor impairment at 30 mg/kg, ip measured at 0.5 hr by rotorod test; type: toxicity, organism-based; parameters: dose 30 mg/kg, route intraperitoneal; settings: in vivo
[19] = system: Mus musculus; assay: Anticonvulsant activity in Mus musculus CF1 albino (mouse) assessed as protection against subcutaneous metrazol-induced seizures at 300 mg/kg, ip measured at 4 hr; type: functional, organism-based; parameters: dose 300 mg/kg
[20] = system: Mus musculus; assay: Anticonvulsant activity in Mus musculus CF1 albino (mouse) assessed as protection against subcutaneous metrazol-induced seizures at 100 mg/kg, ip measured at 4 hr; type: functional, organism-based; parameters: dose 100 mg/kg
[21] = system: Mus musculus; assay: Anticonvulsant activity in Mus musculus CF1 albino (mouse) assessed as protection against subcutaneous metrazol-induced seizures at 30 mg/kg, ip measured at 4 hr; type: functional, organism-based; parameters: dose 30 mg/kg
[22] = system: Mus musculus; assay: Anticonvulsant activity in Mus musculus CF1 albino (mouse) assessed as protection against subcutaneous metrazol-induced seizures at 300 mg/kg, ip measured at 0.5 hr; type: functional, organism-based; parameters: dose 300 mg/kg
[23] = system: Mus musculus; assay: Anticonvulsant activity in Mus musculus CF1 albino (mouse) assessed as protection against subcutaneous metrazol-induced seizures at 100 mg/kg, ip measured at 0.5 hr; type: functional, organism-based; parameters: dose 100 mg/kg
[24] = system: Mus musculus; assay: Anticonvulsant activity in Mus musculus CF1 albino (mouse) assessed as protection against subcutaneous metrazol-induced seizures at 30 mg/kg, ip measured at 0.5 hr; type: functional, organism-based; parameters: dose 30 mg/kg
[25] = Neurotoxicity in ip dosed Mus musculus CF1 albino (mouse) assessed as minimal motor impairment measured at 0.25 hr by rotorod test; type: toxicity, organism-based; settings: in vivo
[26] = Protective index, ratio of TD50 for neurotoxicity in ip dosed Mus musculus CF1 albino (mouse) to ED50 for protection against subcutaneous metrazol-induced seizures in ip dosed Mus musculus CF1 albino (mouse); type: toxicity, organism-based; settings: in vivo, read-out: Ratio TD50/ED50
[27] = Protective index, ratio of TD50 for neurotoxicity in ip dosed Mus musculus CF1 albino (mouse) to ED50 for protection against maximal electroshock-induced seizures in ip dosed Mus musculus CF1 albino (mouse); type: toxicity, organism-based; settings: in vivo, read-out: Ratio TD50/ED50
[28] = system: Mus musculus; assay: Neurotoxicity in Mus musculus CF1 albino (mouse) assessed as minimal motor impairment at 300 mg/kg, ip measured at 4 hr by rotorod test; type: toxicity, organism-based; parameters: dose 300 mg/kg, route intraperitoneal; settings: in vivo
[29] = system: Mus musculus; assay: Neurotoxicity in Mus musculus CF1 albino (mouse) assessed as minimal motor impairment at 100 mg/kg, ip measured at 0.5 hr by rotorod test; type: toxicity, organism-based; parameters: dose 100 mg/kg, route intraperitoneal; settings: in vivo
[30] = Protective index, ratio of TD50 for neurotoxicity in ip dosed Mus musculus CF1 albino (mouse) to ED50 for protection against electrically-induced seizure by 6Hz psychomotor seizure test in ip dosed Mus musculus CF1 albino (mouse); type: toxicity, organism-based; settings: in vivo, read-out: Ratio TD50/ED50

Compound	Activity [1]	Activity [2]	Activity [3]	Activity [4]	Activity [5]	Activity [6]	Activity [10]	Activity [11]	Activity [15]	Activity [16]	Activity [17]	Activity [18]	Activity [19]	Activity [20]	Activity [21]	Activity [22]	Activity [23]	Activity [24]	Activity [28]	Activity [29]	other results
c1ccc(-c2c[nH]c(-c3ccccc3)n2)cc1	Active	Active	inactive	inactive	Active	Active	inactive	inactive	Non-toxic	Non-toxic	Toxic	Non-toxic	inactive	inactive	inactive	inactive	inactive	inactive			ED50 [7]: 47.2 mg/kg; ED50 [8]: 161 mg/kg; ED50 [9]: 61.7 mg/kg; Activity [12]: Active; Activity [13]: Active; Activity [14]: Active
COc1ccc(-c2nc(-c3ccc(Cl)cc3)c[nH]2)cc1	inactive	Active	Active	inactive	Active		inactive	inactive	Non-toxic	Non-toxic	Non-toxic	Non-toxic	inactive	inactive	inactive	inactive	inactive	inactive	Non-toxic	Non-toxic	TD50 at 0.25 h [25]: 238 mg/kg; selectivity ratio [26]: 1.5; ED50 [8]: 158 mg/kg; ED50 [9]: 68.8 mg/kg; selectivity ratio [27]: 3.5
O=C1NC(=O)C(c2ccccc2)(c2ccccc2)N1 [PHENYTOIN]																					ED50 [7]: 27.5 mg/kg; TD50 at 0.25 h [25]: 35.6 mg/kg
COc1ccc(-c2nc(-c3cccc(Cl)c3)c[nH]2)cc1	inactive	Active		inactive	Active	inactive	inactive		Non-toxic	Non-toxic	Non-toxic	Non-toxic	inactive	inactive	inactive	inactive	inactive	inactive	Non-toxic	Non-toxic	TD50 at 0.25 h [25]: 390 mg/kg; selectivity ratio [26]: 3.8; ED50 [8]: 103 mg/kg; ED50 [9]: 82.1 mg/kg; selectivity ratio [27]: 4.7; Activity [12]: inactive
Cc1ccc(-c2nc(-c3ccccc3)c[nH]2)cc1	inactive	Active	inactive	inactive	Active		inactive		Non-toxic	Non-toxic	Non-toxic	Non-toxic	inactive	inactive	inactive	inactive	inactive	inactive	Non-toxic	Non-toxic	selectivity ratio [30]: 3; ED50 [7]: 62.4 mg/kg; TD50 at 0.25 h [25]: 188 mg/kg
FC(F)(F)Oc1ccc(-c2nc(-c3ccccc3)c[nH]2)cc1	inactive	Active		inactive	Active	inactive			Non-toxic	Non-toxic	Toxic	Non-toxic	inactive	inactive	inactive	Active	inactive	inactive	Non-toxic	Non-toxic	selectivity ratio [30]: 4.8; ED50 [7]: 28.2 mg/kg; TD50 at 0.25 h [25]: 136 mg/kg; Activity [12]: Active; Activity [13]: Active; Activity [14]: Active
CCOc1ccc(-c2nc(-c3ccccc3)c[nH]2)cc1	inactive	inactive	inactive	inactive	Active		inactive	inactive	Non-toxic	Non-toxic	Non-toxic	Non-toxic		inactive	inactive	inactive	inactive	inactive	Non-toxic	Non-toxic	Activity [12]: inactive
CC(C)c1ccc(-c2nc(-c3ccccc3)c[nH]2)cc1	inactive	Active	inactive	inactive	Active	inactive			Non-toxic	Non-toxic	Non-toxic	Non-toxic	inactive	inactive	inactive	inactive	inactive	inactive	Non-toxic	Non-toxic	Activity [12]: inactive
CC(C)Oc1ccc(-c2nc(-c3ccccc3)c[nH]2)cc1	Active	Active	inactive	inactive	Active	Active	inactive	inactive	Non-toxic	Non-toxic	Toxic	Non-toxic	inactive	inactive	inactive	inactive	inactive	inactive		Non-toxic	
COc1ccc(-c2nc(-c3ccccc3)c[nH]2)cc1	inactive	Active		inactive	Active	Active	inactive	inactive	Non-toxic	Non-toxic	Toxic	Non-toxic	inactive	inactive	inactive	Active	inactive	inactive	Toxic	Non-toxic	selectivity ratio [26]: 1.4; ED50 [8]: 142 mg/kg; ED50 [9]: 46.8 mg/kg; selectivity ratio [27]: 4.3

From ChEMBL document CHEMBL3045552, “In vivo screening of diarylimidazoles as anticonvulsant agents” (Med Chem Res, 2012)
